Assay results published in patent publication US20110015119A1, “NOVEL SEMI-SYNTHETIC GLYCOPEPTIDES AS ANTIBACTERIAL AGENTS” (LEAD THERAPEUTICS, INC., priority 2009, published 2011).
In brackets after ≈: the same amount, converted by molar mass. Where two headings read alike, the source gives them in different places.

Experiments:
Assay type in all cases: cell-based
[1] = tested on: Streptococcus pneumoniae 1195 (ATCC 49619); experiment: MIC by broth microdilution, SPNE 1195
Protocol: (§1) Antibacterial activity in vitro is investigated by broth microdilution method in Meuller-Hinton broth as recommended by NCCLS. All strains tested are clinical isolates either sensitive or resistant to natural glycopeptides. MIC values were determined using the CLSI-recommended broth microdilution procedure (Clinical and Laboratory Standards Institute, Methods for Dilution Antimicrobial Susceptibility Tests for Bacteria That Grow Aerobically; Approved Standard-Seventh Edition.). Automated liquid handlers (Multidrop 384, Labsystems, Helsinki, Finland; Biomek 2000 and Multimek 96, Beckman Coulter, Fullerton Calif.) were used to conduct serial dilutions and liquid transfers. The MIC value for vancomycin is given for comparison. The abbreviations for organisms tested are as follow: SA 100—Staphylococcus aureus 100 (ATCC 29213); SA 757—Staphylococcus aureus 757 (MRSA); SA 2012—Staphylococcus aureus 2012 (VISA); SE 835—Staphylococcus epidermidis 835; SE 831—Staphylococcus epidermidis 831 (MRSE); EFc 101—Enterococcus faecalis 101 (ATCC 29212); EFc 848—Enterococcus faecalis 848 (VRE, Van A); EFcm 800—Enterococcus faecium 800; EFcm 752—Enterococcus faecium 752 (VRE, Van A); SPNE 1195—Streptococcus pneumoniae 1195 (ATCC 49619); SPY 712—Streptococcus pyogenes 712.

[2] = tested on: Staphylococcus epidermidis 835; experiment: MIC by broth microdilution, SE 835
Protocol: as §1

[3] = tested on: Staphylococcus aureus 2012 (VISA); experiment: MIC by broth microdilution, SA 2012; details: class symbols
Protocol: as §1

[4] = tested on: Staphylococcus aureus 757 (MRSA); experiment: MIC by broth microdilution, SA 757; details: read-out: MIC SA 757
Protocol: as §1

[5] = tested on: Staphylococcus aureus 100 (ATCC 29213); experiment: MIC by broth microdilution, SA 100
Protocol: as §1

Enterococcus faecium 800 = experiment: MIC by broth microdilution, EFcm 800
Protocol: as §1

[6] = tested on: Enterococcus faecalis 101 (ATCC 29212); experiment: MIC by broth microdilution, EFc 101; details: class symbols
Protocol: as §1

[7] = tested on: Streptococcus pyogenes 712; experiment: MIC by broth microdilution, SPY 712
Protocol: as §1

[8] = tested on: Enterococcus faecium 752 (VRE, Van A); experiment: MIC by broth microdilution, EFcm 752; details: class symbols
Protocol: as §1

[9] = tested on: Staphylococcus epidermidis 831 (MRSE); experiment: MIC by broth microdilution, SE 831; details: read-out: MIC SE 831
Protocol: as §1

[10] = tested on: Enterococcus faecalis 848 (VRE, Van A); experiment: MIC by broth microdilution, EFc 848; details: class symbols
Protocol: as §1

[11] = ATCC49619, Streptococcus pneumoniae 1195 (ATCC 49619), class symbols, read-out: MIC S PNE 1195
[12] = Staphylococcus epidermidis 835, class symbols, read-out: MIC SE 835
[13] = Staphylococcus aureus 2012 (VISA), read-out: MIC SA 2012
[14] = Staphylococcus aureus 757 (MRSA), class symbols
[15] = ATCC29213, Staphylococcus aureus 100 (ATCC 29213), class symbols, read-out: MIC SA 100
[16] = Enterococcus faecium 800, class symbols, read-out: MIC E FCM 800
[17] = ATCC29212, Enterococcus faecalis 101 (ATCC 29212), read-out: MIC E FC 101
[18] = Streptococcus pyogenes 712, class symbols, read-out: MIC S PYO 712
[19] = Enterococcus faecium 752 (VRE, Van A), read-out: MIC E FCM 752
[20] = Staphylococcus epidermidis 831 (MRSE), class symbols
[21] = Enterococcus faecalis 848 (VRE, Van A), read-out: MIC E FC 848

| MIC [1, 11] | MIC [2, 12] | MIC [3, 13] | MIC [4, 14] | MIC [5, 15] | MIC (Enterococcus faecium 800; [16]) | MIC [6, 17] | MIC [7, 18] | MIC [8, 19] | MIC [9, 20] | MIC [10, 21] | SMILES | further results |
| --- | --- | --- | --- | --- | --- | --- | --- | --- | --- | --- | --- | --- |
|  |  |  |  |  |  |  |  |  |  |  | CCCCCOc1ccc(CCNC(=O)Oc2cc(O)c3c(c2)[C@@H](C(=O)O)NC(=O)[C@H]2NC(=O)[C@H](NC(=O)[C@@H]4NC(=O)[C@H](CC(N)=O)NC(=O)[C@H](NC(=O)[C@@H](CC(C)C)NC)[C@H](O)c5ccc(c(Cl)c5)Oc5cc4cc(c5O[C@@H]4O[C@H](CO)[C@@H](O)[C@H](O)[C@H]4O[C@H]4C[C@](C)(N)[C@H](O)[C@H](C)O4)Oc4ccc(cc4Cl)[C@H]2O)c2ccc(O)c-3c2)cc1 (atropisomer, axis not shown) [Compound 356] | MIC ([1]; Streptococcus pneumoniae, ATCC49619, read-out: MIC S PNE 1195): 0.01 to 0.5 µg/mL (≈ 0.00594 to 0.297 µM); MIC ([2]; Staphylococcus epidermidis, 835, read-out: MIC SE 835): 0.01 to 0.5 µg/mL (≈ 0.00594 to 0.297 µM); MIC ([3]; Staphylococcus aureus, VISA, read-out: MIC SA 2012, Staphylococcus aureus 2012 (VISA)): 1 to 2 µg/mL (≈ 0.594 to 1.19 µM); MIC ([4]; Staphylococcus aureus, MRSA): 0.01 to 0.5 µg/mL (≈ 0.00594 to 0.297 µM); MIC ([5]; Staphylococcus aureus, ATCC29213, read-out: MIC SA 100): 0.01 to 0.5 µg/mL (≈ 0.00594 to 0.297 µM); MIC (Enterococcus faecium 800; Enterococcus faecium, 800, read-out: MIC E FCM 800): 0.01 to 0.5 µg/mL (≈ 0.00594 to 0.297 µM); MIC ([6]; Enterococcus faecalis, ATCC29212, read-out: MIC E FC 101, Enterococcus faecalis 101 (ATCC 29212)): 0.01 to 0.5 µg/mL (≈ 0.00594 to 0.297 µM); MIC ([7]; Streptococcus pyogenes, 712, read-out: MIC S PYO 712): 0.01 to 0.5 µg/mL (≈ 0.00594 to 0.297 µM); MIC ([8]; Enterococcus faecium, VRE, read-out: MIC E FCM 752, Enterococcus faecium 752 (VRE, Van A)): 4 to 8 µg/mL (≈ 2.38 to 4.75 µM); MIC ([9]; Staphylococcus epidermidis, MRSE): 0.01 to 0.5 µg/mL (≈ 0.00594 to 0.297 µM); MIC ([10]; Enterococcus faecalis, VRE, read-out: MIC E FC 848, Enterococcus faecalis 848 (VRE, Van A)): > 16 µg/mL |
| 0.01 to 0.5 µg/mL (≈ 0.00533 to 0.267 µM) | 0.01 to 0.5 µg/mL (≈ 0.00533 to 0.267 µM) | 0.01 to 0.5 µg/mL (≈ 0.00533 to 0.267 µM) | 0.01 to 0.5 µg/mL (≈ 0.00533 to 0.267 µM) | 0.01 to 0.5 µg/mL (≈ 0.00533 to 0.267 µM) | 0.01 to 0.5 µg/mL (≈ 0.00533 to 0.267 µM) | 0.01 to 0.5 µg/mL (≈ 0.00533 to 0.267 µM) | 0.01 to 0.5 µg/mL (≈ 0.00533 to 0.267 µM) | 4 to 8 µg/mL (≈ 2.13 to 4.27 µM) | 0.01 to 0.5 µg/mL (≈ 0.00533 to 0.267 µM) | > 16 µg/mL | CCCCCOc1ccc(S(=O)(=O)NCCCCCCNCc2c(O)cc3c(c2O)-c2cc(ccc2O)[C@H]2NC(=O)[C@@H]4NC(=O)[C@H](CC(N)=O)NC(=O)[C@H](NC(=O)[C@@H](CC(C)C)NC)[C@H](O)c5ccc(c(Cl)c5)Oc5cc4cc(c5O[C@@H]4O[C@H](CO)[C@@H](O)[C@H](O)[C@H]4O[C@H]4C[C@](C)(NC(=O)[C@@H](C)N)[C@H](O)[C@H](C)O4)Oc4ccc(cc4Cl)[C@@H](O)[C@H](NC2=O)C(=O)N[C@@H]3C(=O)O)cc1 (atropisomer, axis not shown) [Compound 357] |  |
| 0.01 to 0.5 µg/mL (≈ 0.00538 to 0.269 µM) | 0.01 to 0.5 µg/mL (≈ 0.00538 to 0.269 µM) | 0.01 to 0.5 µg/mL (≈ 0.00538 to 0.269 µM) | 0.01 to 0.5 µg/mL (≈ 0.00538 to 0.269 µM) | 0.01 to 0.5 µg/mL (≈ 0.00538 to 0.269 µM) | 0.01 to 0.5 µg/mL (≈ 0.00538 to 0.269 µM) | 0.01 to 0.5 µg/mL (≈ 0.00538 to 0.269 µM) | 0.01 to 0.5 µg/mL (≈ 0.00538 to 0.269 µM) | 2 to 4 µg/mL (≈ 1.08 to 2.15 µM) | 0.01 to 0.5 µg/mL (≈ 0.00538 to 0.269 µM) | 8 to 16 µg/mL (≈ 4.3 to 8.61 µM) | CCCCCCc1ccc(S(=O)(=O)NCCCCCCNCc2c(O)cc3c(c2O)-c2cc(ccc2O)[C@H]2NC(=O)[C@@H]4NC(=O)[C@H](CC(N)=O)NC(=O)[C@H](NC(=O)[C@@H](CC(C)C)NC)[C@H](O)c5ccc(c(Cl)c5)Oc5cc4cc(c5O[C@@H]4O[C@H](CO)[C@@H](O)[C@H](O)[C@H]4O[C@H]4C[C@](C)(NC(=O)CN)[C@H](O)[C@H](C)O4)Oc4ccc(cc4Cl)[C@@H](O)[C@H](NC2=O)C(=O)N[C@@H]3C(=O)O)cc1 (atropisomer, axis not shown) [Compound 362] |  |
| 0.01 to 0.5 µg/mL (≈ 0.00542 to 0.271 µM) | 0.01 to 0.5 µg/mL (≈ 0.00542 to 0.271 µM) | 0.01 to 0.5 µg/mL (≈ 0.00542 to 0.271 µM) | 0.01 to 0.5 µg/mL (≈ 0.00542 to 0.271 µM) | 0.01 to 0.5 µg/mL (≈ 0.00542 to 0.271 µM) | 0.01 to 0.5 µg/mL (≈ 0.00542 to 0.271 µM) | 0.01 to 0.5 µg/mL (≈ 0.00542 to 0.271 µM) | 0.01 to 0.5 µg/mL (≈ 0.00542 to 0.271 µM) | 2 to 4 µg/mL (≈ 1.08 to 2.17 µM) | 0.01 to 0.5 µg/mL (≈ 0.00542 to 0.271 µM) | 8 to 16 µg/mL (≈ 4.34 to 8.68 µM) | CCCCCCc1ccc(S(=O)(=O)NCCCCCCNCc2c(O)cc3c(c2O)-c2cc(ccc2O)[C@H]2NC(=O)[C@@H]4NC(=O)[C@H](CC(N)=O)NC(=O)[C@H](NC(=O)[C@@H](CC(C)C)NC)[C@H](O)c5ccc(c(Cl)c5)Oc5cc4cc(c5O[C@@H]4O[C@H](CO)[C@@H](O)[C@H](O)[C@H]4O[C@H]4C[C@](C)(NC(C)=O)[C@H](O)[C@H](C)O4)Oc4ccc(cc4Cl)[C@@H](O)[C@H](NC2=O)C(=O)N[C@@H]3C(=O)O)cc1 (atropisomer, axis not shown) [Compound 363] |  |
